In the assay the test system is PhCMV*-1 and PETR driven SecCell expression. The experiment in a line: Transient expression of SecCell under antibiotic-responsive promoters in mammalian cells. It counts as cell-based, human, hamster. The following applies: HEK293-T, HeLa, HT-1080, CHO-K1, BHK-21, transient transfection. The source says: (B) Transient expression of cellulase in HEK293-T, HeLa, HT-1080, BHK-21 and CHO-K1 cells. Cellulase was either driven by a constitutive (PhCMV) or antibiotic-responsive promoters (PhCMV*-1 and PETR).
The Bacillus subtilis endo (1-4)-beta-glucanase was PCR-amplified from genomic DNA and fused to a strong mammalian secretion signal sequence derived from the murine Igk-chain V-12-C region. The secreted cellulase (SecCell) was cloned downstream of a constitutive promoter (PhCMV) as well as two different inducible promoters which enabled doxycycline-(PhCMV*-1) and erythromycin-(PETR) adjustable transgene expression (FIG. 1A).
Cellulase was quantified using EnzCheck® fluorescent substrate (Molecular Probes, Eugene, Oreg., USA) according to the manufacturer's protocol: 20 μl of cell culture supernatant was centrifuged at 16,000×g for one minute to remove cell debris and 15 μl of appropriate dilutions in PBS (Invitrogen, cat. no. 21600-069) were transferred to a 384-well plate containing 15 μl sodium acetate buffer (200 mM sodium acetate, pH 5.5) per well supplemented with 3 μl substrate solution. Plates were incubated at 37° C. for 30 minutes and fluorescence intensity was measured subsequently at 340 nm (excitation wavelength) and 450 nm (emission wavelength) in a Genios Pro multiwell plate reader (Tecan A G, Maennedorf, Switzerland). […]

Structures are written as SMILES.

For `CC[C@H]1OC(=O)[C@H](C)[C@@H](O[C@H]2C[C@@](C)(OC)[C@@H](O)[C@H](C)O2)[C@H](C)[C@@H](O[C@@H]2O[C@H](C)C[C@H](N(C)C)[C@H]2O)[C@](C)(O)C[C@@H](C)C(=O)[C@H](C)[C@@H](O)[C@]1(C)O` [EM, erythromycin], the “SecCell production (cellulase activity in the culture supernatants)” value is given as “repressed”.

The values above are taken from US8506950B2, “Degradable microcapsules” (ETH Zurich, priority 2008, dated 2013).
